Reference: patent US9476099B2 (TRUSTEES OF DARTMOUTH COLLEGE, priority 2012, dated 2016)
Where “and” joins values, the source holds several entries; their conditions need not be identical. Equal values may be shown once.

Test system: NT2/D1-R1 control and DNMT3B knockdown cells
Test: Genome-wide expression analysis with PAM clusters, control and DNMT3B knockdown cells (Tables 8-14)
Conditions: sh-Ctrl + aza
[1] = NT2/D1-R1, decitabine 10 nM 3 days

Question: Which results are given for Nc1ncn([C@H]2C[C@H](O)[C@@H](CO)O2)c(=O)n1 [aza]?
Answer: LOC644422 XR_019449 expression Mean (10 nM decitabine, 3 days): 332.598; LOC647954 XR_018676 expression Mean (10 nM decitabine, 3 days): 1348.27; LOC728715 XM_0011282 expression Mean (10 nM decitabine, 3 days): 1760.28; M6PRBP1 NM_005817 expression Mean (10 nM decitabine, 3 days): 2017.94; MBNL3 NM_133486 expression Mean (10 nM decitabine, 3 days): 338.893; MCM4 NM_005914 expression Mean (10 nM decitabine, 3 days): 2945.56; MEPCE NM_019606 expression Mean (10 nM decitabine, 3 days): 786.84; METTL1 NM_005371 expression Mean (10 nM decitabine, 3 days): 412.423; MORF4L2 NM_012286 expression Mean (10 nM decitabine, 3 days): 1621.68; MRTO4 NM_016183 expression Mean (10 nM decitabine, 3 days): 893.853; MT1E NM_175617 expression Mean (10 nM decitabine, 3 days): 2437.55; MTA2 NM_004739 expression Mean (10 nM decitabine, 3 days): 453.486; MYOF NM_013451 expression Mean (10 nM decitabine, 3 days): 302.746; MYOF NM_133337 expression Mean (10 nM decitabine, 3 days): 612.957; NACC2 NM_144653 expression Mean (10 nM decitabine, 3 days): 566.307; NAT5 NM_181528 expression Mean (10 nM decitabine, 3 days): 1401.34; NBPF10 NM_0010376 expression Mean (10 nM decitabine, 3 days): 816.642; NBPF10 NM_0010397 expression Mean (10 nM decitabine, 3 days): 557.142; NEFH NM_021076 expression Mean (10 nM decitabine, 3 days): 538.551; NFE2 NM_006163 expression Mean (10 nM decitabine, 3 days): 459.796; NM_002467 expression Mean (10 nM decitabine, 3 days): 896.83; NM_0010397 expression Mean (10 nM decitabine, 3 days): 736.286; NM_138781 expression Mean (10 nM decitabine, 3 days): 484.429; NODAL NM_018055 expression Mean (10 nM decitabine, 3 days): 954.925; NOP2 NM_0010337 expression Mean (10 nM decitabine, 3 days): 7589.18; NOP56 NM_006392 expression Mean (10 nM decitabine, 3 days): 1764.44; NP NM_000270 expression Mean (10 nM decitabine, 3 days): 475.426; NR_002773 expression Mean (10 nM decitabine, 3 days): 596.315; NR_003287 expression Mean (10 nM decitabine, 3 days): 634.816; NTF3 NM_002527 expression Mean (10 nM decitabine, 3 days): 286.374; NTS NM_006183 expression Mean (10 nM decitabine, 3 days): 641.496; NUAK2 NM_030952 expression Mean (10 nM decitabine, 3 days): 309.88 and 403.382; OAT NM_000274 expression Mean (10 nM decitabine, 3 days): 2902.41; ODC1 NM_002539 expression Mean (10 nM decitabine, 3 days): 3243.03; PAK1IP1 NM_017906 expression Mean (10 nM decitabine, 3 days): 644.744; PEA15 NM_003768 expression Mean (10 nM decitabine, 3 days): 2263.16; PEG3 NM_006210 expression Mean (10 nM decitabine, 3 days): 442.766; PITX1 NM_002653 expression Mean (10 nM decitabine, 3 days): 947.042; PLAU NM_002658 expression Mean (10 nM decitabine, 3 days): 1093.87; PLEKHF1 NM_024310 expression Mean (10 nM decitabine, 3 days): 716.406; POLR1C NM_203290 expression Mean (10 nM decitabine, 3 days): 533.492 and 971.221; PPA2 NM_006903 expression Mean (10 nM decitabine, 3 days): 1058.5; PPAN NM_002566 expression Mean (10 nM decitabine, 3 days): 615.062; RBM22 NM_018047 expression Mean (10 nM decitabine, 3 days): 921.101; RNMTL1 NM_018146 expression Mean (10 nM decitabine, 3 days): 708.14; RPL6 NM_0010246 expression Mean (10 nM decitabine, 3 days): 1189.55; RRM2 NM_001034 expression Mean (10 nM decitabine, 3 days): 697.476; RSL1D1 NM_015659 expression Mean (10 nM decitabine, 3 days): 1413.6; RUNX3 NM_004350 expression Mean (10 nM decitabine, 3 days): 484.199; SERPINE1 NM_000602 expression Mean (10 nM decitabine, 3 days): 539.652; SERTAD1 NM_013376 expression Mean (10 nM decitabine, 3 days): 534.101; SFXN4 NM_213649 expression Mean (10 nM decitabine, 3 days): 724.081; SIDT2 NM_0010404 expression Mean (10 nM decitabine, 3 days): 528.693; SLC20A1 NM_005415 expression Mean (10 nM decitabine, 3 days): 1468.1; SNAPC4 NM_003086 expression Mean (10 nM decitabine, 3 days): 1200.9; SOCS2 NM_003877 expression Mean (10 nM decitabine, 3 days): 288.614 and 566.518; SOX15 NM_006942 expression Mean (10 nM decitabine, 3 days): 2791.76; SPANXD NM_145665 expression Mean (10 nM decitabine, 3 days): 210.19; SPRYD5 NM_032681 expression Mean (10 nM decitabine, 3 days): 519.493; SQSTM1 NM_003900 expression Mean (10 nM decitabine, 3 days): 2145.19; SRRT NM_015908 expression Mean (10 nM decitabine, 3 days): 4196.33; SUSD2 NM_019601 expression Mean (10 nM decitabine, 3 days): 2570.13; TAGLN NM_003186 expression Mean (10 nM decitabine, 3 days): 1178.17; TNFRSF12A NM_016639 expression Mean (10 nM decitabine, 3 days): 519.778; TNFRSF13B NM_012452 expression Mean (10 nM decitabine, 3 days): 179.31; TNPO1 NM_153188 expression Mean (10 nM decitabine, 3 days): 439.283; TPRG1L NM_182752 expression Mean (10 nM decitabine, 3 days): 1513.68; TRIM8 NM_030912 expression Mean (10 nM decitabine, 3 days): 922.659; TTC4 NM_004623 expression Mean (10 nM decitabine, 3 days): 1457.62; UTP14A NM_006649 expression Mean (10 nM decitabine, 3 days): 555.285; WBSCR22 NM_017528 expression Mean (10 nM decitabine, 3 days): 1107.76; XM_0011261 expression Mean (10 nM decitabine, 3 days): 718.505; XM_0011281 expression Mean (10 nM decitabine, 3 days): 2231.09; XR_015970 expression Mean (10 nM decitabine, 3 days): 1080.49; XR_016703 expression Mean (10 nM decitabine, 3 days): 6659.76; XR_017241 expression Mean (10 nM decitabine, 3 days): 10363; XR_017543 expression Mean (10 nM decitabine, 3 days): 832.234; ZDHHC6 NM_022494 expression Mean (10 nM decitabine, 3 days): 528.208; ZHX2 NM_014943 expression Mean (10 nM decitabine, 3 days): 479.456; A4GALT (NM_017436) gene expression, Mean [1]: 174.249; ABR (NM_001092) gene expression, Mean [1]: 424.634; ACACA (NM_198836) gene expression, Mean [1]: 443.13
